Measurements from PubChem BioAssay (NCI).
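GI50 = concentration required for 50% inhibition of growth. TGI marks complete inhibition of growth.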

Columns and labels:
Assay in all cases: NCI-60 cell line screen, 384-well format
MALME-3M melanoma = test system: MALME-3M melanoma
SK-MEL-2 melanoma = test system: SK-MEL-2 melanoma
NCI-H522 lung = test system: NCI-H522 lung
ACHN renal = test system: ACHN renal
SK-OV-3 ovarian = test system: SK-OV-3 ovarian
T-47D breast = test system: T-47D breast
HOP-92 NSCLC = test system: HOP-92 NSCLC
TK-10 renal = test system: TK-10 renal
MDA-MB-435 melanoma = test system: MDA-MB-435 melanoma
HCT-116 colon = test system: HCT-116 colon
A498 renal = test system: A498 renal
NCI-H226 lung = test system: NCI-H226 lung
UACC-62 melanoma = test system: UACC-62 melanoma
SK-MEL-5 melanoma = test system: SK-MEL-5 melanoma
SK-MEL-28 melanoma = test system: SK-MEL-28 melanoma
U251 glioblastoma = test system: U251 glioblastoma
NCI-H23 lung = test system: NCI-H23 lung
IGROV1 ovarian = test system: IGROV1 ovarian
HS 578T breast = test system: HS 578T breast
PC-3 prostate = test system: PC-3 prostate
BT-549 breast = test system: BT-549 breast
DU-145 prostate = test system: DU-145 prostate
SF-268 CNS = test system: SF-268 CNS
RPMI-8226 leukemia = test system: RPMI-8226 leukemia
OVCAR-4 ovarian = test system: OVCAR-4 ovarian
MCF7 breast = test system: MCF7 breast
MDA-MB-231 breast = test system: MDA-MB-231 breast
NCI-H322M lung = test system: NCI-H322M lung
A549 NSCLC = test system: A549 NSCLC
K-562 leukemia = test system: K-562 leukemia
HCC-2998 colon = test system: HCC-2998 colon
OVCAR-3 ovarian = test system: OVCAR-3 ovarian
HT29 colon = test system: HT29 colon
KM12 colon = test system: KM12 colon
CCRF-CEM leukemia = test system: CCRF-CEM leukemia
HCT-15 colon = test system: HCT-15 colon
RXF 393 renal = test system: RXF 393 renal
EKVX NSCLC = test system: EKVX NSCLC
HL-60(TB) leukemia = test system: HL-60(TB) leukemia
SNB-19 CNS = test system: SNB-19 CNS
SN12C renal = test system: SN12C renal
NCI/ADR-RES ovarian = test system: NCI/ADR-RES ovarian
OVCAR-5 ovarian = test system: OVCAR-5 ovarian
SR leukemia = test system: SR leukemia
HOP-62 NSCLC = test system: HOP-62 NSCLC
SNB-75 CNS = test system: SNB-75 CNS
COLO 205 colon = test system: COLO 205 colon
UACC-257 melanoma = test system: UACC-257 melanoma
SF-295 CNS = test system: SF-295 CNS
OVCAR-8 ovarian = test system: OVCAR-8 ovarian
CAKI-1 renal = test system: CAKI-1 renal
MDA-MB-468 breast = test system: MDA-MB-468 breast
786-0 renal = test system: 786-0 renal
SF-539 CNS = test system: SF-539 CNS
MOLT-4 leukemia = test system: MOLT-4 leukemia
M14 melanoma = test system: M14 melanoma
NCI-H460 NSCLC = test system: NCI-H460 NSCLC
SW-620 colon = test system: SW-620 colon

O=C1CC(c2c[nH]c3ccc(F)cc23)C(=O)N1 (stereo unspecified)
GI50 (MALME-3M melanoma): > 100 µM | TGI (MALME-3M melanoma): > 100 µM | GI50 (SK-MEL-2 melanoma): > 100 µM | TGI (SK-MEL-2 melanoma): > 100 µM | GI50 (NCI-H522 lung): > 100 µM | TGI (NCI-H522 lung): > 100 µM | GI50 (ACHN renal): > 100 µM | TGI (ACHN renal): > 100 µM | GI50 (SK-OV-3 ovarian): > 100 µM | TGI (SK-OV-3 ovarian): > 100 µM | GI50 (T-47D breast): > 100 µM | TGI (T-47D breast): > 100 µM | GI50 (HOP-92 NSCLC): > 100 µM | TGI (HOP-92 NSCLC): > 100 µM | GI50 (TK-10 renal): > 100 µM | TGI (TK-10 renal): > 100 µM | GI50 (MDA-MB-435 melanoma): > 100 µM | TGI (MDA-MB-435 melanoma): > 100 µM | GI50 (HCT-116 colon): > 100 µM | TGI (HCT-116 colon): > 100 µM | GI50 (A498 renal): > 100 µM | TGI (A498 renal): > 100 µM | GI50 (NCI-H226 lung): > 100 µM | TGI (NCI-H226 lung): > 100 µM | GI50 (UACC-62 melanoma): > 100 µM | TGI (UACC-62 melanoma): > 100 µM | GI50 (SK-MEL-5 melanoma): > 100 µM | TGI (SK-MEL-5 melanoma): > 100 µM | GI50 (SK-MEL-28 melanoma): > 100 µM | TGI (SK-MEL-28 melanoma): > 100 µM | GI50 (U251 glioblastoma): > 100 µM | TGI (U251 glioblastoma): > 100 µM | GI50 (NCI-H23 lung): > 100 µM | TGI (NCI-H23 lung): > 100 µM | GI50 (IGROV1 ovarian): > 100 µM | TGI (IGROV1 ovarian): > 100 µM | GI50 (HS 578T breast): > 100 µM | TGI (HS 578T breast): > 100 µM | GI50 (PC-3 prostate): > 100 µM | TGI (PC-3 prostate): > 100 µM | GI50 (BT-549 breast): > 100 µM | TGI (BT-549 breast): > 100 µM | GI50 (DU-145 prostate): > 100 µM | TGI (DU-145 prostate): > 100 µM | GI50 (SF-268 CNS): > 100 µM | TGI (SF-268 CNS): > 100 µM | GI50 (RPMI-8226 leukemia): > 100 µM | TGI (RPMI-8226 leukemia): > 100 µM | GI50 (OVCAR-4 ovarian): > 100 µM | TGI (OVCAR-4 ovarian): > 100 µM | GI50 (MCF7 breast): > 100 µM | TGI (MCF7 breast): > 100 µM | GI50 (MDA-MB-231 breast): > 100 µM | TGI (MDA-MB-231 breast): > 100 µM | GI50 (NCI-H322M lung): > 100 µM | TGI (NCI-H322M lung): > 100 µM | GI50 (A549 NSCLC): > 100 µM | TGI (A549 NSCLC): > 100 µM | GI50 (K-562 leukemia): > 100 µM | TGI (K-562 leukemia): > 100 µM | GI50 (HCC-2998 colon): > 100 µM | TGI (HCC-2998 colon): > 100 µM | GI50 (OVCAR-3 ovarian): > 100 µM | TGI (OVCAR-3 ovarian): > 100 µM | GI50 (HT29 colon): > 100 µM | TGI (HT29 colon): > 100 µM | GI50 (KM12 colon): > 100 µM | TGI (KM12 colon): > 100 µM | GI50 (CCRF-CEM leukemia): > 100 µM | TGI (CCRF-CEM leukemia): > 100 µM | GI50 (HCT-15 colon): > 100 µM | TGI (HCT-15 colon): > 100 µM | GI50 (RXF 393 renal): > 100 µM | TGI (RXF 393 renal): > 100 µM | GI50 (EKVX NSCLC): > 100 µM | TGI (EKVX NSCLC): > 100 µM | GI50 (HL-60(TB) leukemia): > 100 µM | TGI (HL-60(TB) leukemia): > 100 µM | GI50 (SNB-19 CNS): > 100 µM | TGI (SNB-19 CNS): > 100 µM | GI50 (SN12C renal): > 100 µM | TGI (SN12C renal): > 100 µM | GI50 (NCI/ADR-RES ovarian): > 100 µM | TGI (NCI/ADR-RES ovarian): > 100 µM | GI50 (OVCAR-5 ovarian): > 100 µM | TGI (OVCAR-5 ovarian): > 100 µM | GI50 (SR leukemia): > 100 µM | TGI (SR leukemia): > 100 µM | GI50 (HOP-62 NSCLC): > 100 µM | TGI (HOP-62 NSCLC): > 100 µM | GI50 (SNB-75 CNS): > 100 µM | TGI (SNB-75 CNS): > 100 µM | GI50 (COLO 205 colon): > 100 µM | TGI (COLO 205 colon): > 100 µM | GI50 (UACC-257 melanoma): > 100 µM | TGI (UACC-257 melanoma): > 100 µM | GI50 (SF-295 CNS): > 100 µM | TGI (SF-295 CNS): > 100 µM | GI50 (OVCAR-8 ovarian): > 100 µM | TGI (OVCAR-8 ovarian): > 100 µM | GI50 (CAKI-1 renal): > 100 µM | TGI (CAKI-1 renal): > 100 µM | GI50 (MDA-MB-468 breast): > 100 µM | TGI (MDA-MB-468 breast): > 100 µM | GI50 ([…]-0 renal): > 100 µM | TGI (786-0 renal): > 100 µM | GI50 (SF-539 CNS): > 100 µM | TGI (SF-539 CNS): > 100 µM | GI50 (MOLT-4 leukemia): > 100 µM | TGI (MOLT-4 leukemia): > 100 µM | GI50 (M14 melanoma): > 100 µM | TGI (M14 melanoma): > 100 µM | GI50 (NCI-H460 NSCLC): > 100 µM | TGI (NCI-H460 NSCLC): > 100 µM | GI50 (SW-620 colon): > 100 µM | TGI (SW-620 colon): > 100 µM
